What follows are compounds tested against T1, Recombinant human renin (Homo sapiens, UniProt P00797) (assay: In vitro enzymatic activity assay of Renin inhibitors (fluorescence, QXL520/HiLyteFluo488 peptide substrate)). Details: recombinant human renin 3 nM, 1 μM substrate, 37° C., pH 7.4; values given as ranges; read-out: IC50 of Exemplified Compounds Against Renin.
T1 construct: isolate the active form (residues 67-406); made in house; host or cells: FreeStyle 293-F cells (transient expression of pcDNA3.1(+)/hREN)
T1 sequence (P00797 67-406): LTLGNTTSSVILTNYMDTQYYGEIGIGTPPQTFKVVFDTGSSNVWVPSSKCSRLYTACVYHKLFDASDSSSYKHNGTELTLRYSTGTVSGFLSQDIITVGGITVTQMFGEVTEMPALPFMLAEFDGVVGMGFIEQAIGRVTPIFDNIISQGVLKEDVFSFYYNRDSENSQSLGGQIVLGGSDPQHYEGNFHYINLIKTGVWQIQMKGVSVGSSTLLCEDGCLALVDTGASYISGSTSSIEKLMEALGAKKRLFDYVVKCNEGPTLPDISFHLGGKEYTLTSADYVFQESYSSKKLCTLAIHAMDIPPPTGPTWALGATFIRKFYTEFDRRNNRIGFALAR
Type: biochemical
Description: Test compounds in varying concentrations may be reacted with recombinant human renin in the presence of substrate, e.g., QXL520-γ-Abu-Ile-His-Pro-Phe-His-Leu-Val-Ile-His-Thr-Lys (HiLyteFluo488)-Arg-OH (Anaspec, San Jose, Calif.). The reaction can be followed kinetically using fluorescence (excitation λ=485 nm; emission λ=538 nm). Inhibition constants (IC50) may be calculated by non-linear curve fitting of the compound concentrations and fluorescence intensities to the standard IC50 equation.
Solutions of test compounds in varying concentrations (<2 mM final concentration) are prepared in dimethyl sulfoxide (DMSO) and then diluted into assay buffer comprising 50 mM Hepes, 1 mM EDTA, 1 mM DTT, 0.1 mg/ml BSA, 0.01% Brij35, pH 7.4. Alternatively, the assay can be performed with a high BSA concentration, wherein the buffer contains an additional 2% BSA.
Recombinant human renin (3 nM final concentration) is added to the dilutions and pre-incubated with the compounds for 10 minutes at 37° C. As described in Examples A-C above, human Renin can be obtained by expressing preprorenin (residue 1-406) in mammalian cells, treating the prorenin (residues 24-406) contained in the culture supernatant with trypsin, and isolate the active form (residues 67-406). After pre-incubation, the reaction is initiated with 1 μM of substrate QXL520-γ-Abu-Ile-His-Pro-Phe-His-Leu-Val-Ile-His-Thr-Lys (HiLyteFluo488)-Arg-OH (Anaspec, San Jose, Calif.). The final DMSO in the assay is 5%. The total volume of the reaction mixture is 20 μL, which can be placed on Greiner 384-well small volume plates.
Renin activity may be determined via fluorescence (excitation λ=485 nm; emission λ=538 nm), e.g., on a Molecular Devices SPECTROmax GEMINI XPS. The fluorescence intensity is determined upon the addition of substrate and determined again after incubation at 37° C. for one hour. The fluorescence intensity of a blank (no inhibition) using vehicle alone is also determined. Renin activity is linearly proportional to the change in fluorescence observed (final−initial).
The percent inhibition of Renin at a given compound concentration is defined as:
100%×[1−(Fcompound/Fblank)]
where Fcompound is the observed fluorescence at a given concentration of test compound and Fblank is the observed fluorescence in the presence of vehicle alone.
The pIC50 value (negative log of the molar concentration of the compound that produces 50% inhibition) of a test compound is calculated by non-linear least squares curve fitting of the equation: […]
to percent inhibition versus compound concentration. The 50% inhibitory concentration (IC50) of a test compound is calculated by raising 10 to the negative pIC50 (10^−pIC50).
In the case of `O=C(CCc1ccccc1)N1CCNC[C@H]1Cc1ccccc1` [Example 1, (R)-1-(2-Benzylpiperazin-1-yl)-3-phenylpropan-1-one], the IC50 is reported as 5 to 50 µM. Compound `O=C(CC(c1ccccc1)c1ccccc1)N1CCNC[C@H]1Cc1ccccc1` [Example 2, (R)-1-(2-Benzylpiperazin-1-yl)-3,3-diphenylpropan-1-one] has an IC50 of 0.5 to 5 µM. In the case of `O=C(Cc1ccccc1-c1ccc(F)cc1)N1CCNC[C@H]1Cc1ccccc1` [Example 3, (R)-1-(2-Benzylpiperazin-1-yl)-2-(4′-fluorobiphenyl-2-yl)ethanone], the IC50 is reported as 0.5 to 5 µM. In the case of `O=C(COc1ccccc1Br)N1CCNC[C@H]1Cc1ccccc1` [Example 4, (R)-1-(2-Benzylpiperazin-1-yl)-2-(2-bromophenoxy)ethanone], the IC50 is reported as 5 to 50 µM. For `O=C(CCC(=O)N1CCNC[C@H]1Cc1ccccc1)c1ccccc1` [Example 5, (R)-1-(2-Benzylpiperazin-1-yl)-4-phenylbutane-1,4-dione], the IC50 was over 50 µM. `O=C(C(Cc1ccccc1)c1ccccc1)N1CCNC[C@H]1Cc1ccccc1` (stereo partly drawn) [Example 6, 1-((R)-2-Benzylpiperazin-1-yl)-2,3-diphenylpropan-1-one] showed an IC50 of 0.5 to 5 µM. `O=C(CCc1ccccc1Oc1ccccc1)N1CCNC[C@H]1Cc1ccccc1` [Example 7, (R)-1-(2-Benzylpiperazin-1-yl)-3-(2-phenoxyphenyl)propan-1-one] was tested, and the IC50 was under 0.5 µM. With `O=C(Cc1ccccc1Oc1ccccc1)N1CCNC[C@H]1Cc1ccccc1` [Example 8, (R)-1-(2-Benzylpiperazin-1-yl)-2-(2-phenoxyphenyl)ethanone] the IC50 was 5 to 50 µM. With `COc1ccccc1-c1ccccc1CC(=O)N1CCNC[C@H]1Cc1ccccc1` [Example 9, 1-((R)-2-Benzylpiperazin-1-yl)-2-(2′-methoxybiphenyl-2-yl)ethanone] the IC50 was 5 to 50 µM. Compound `O=C(NC(c1ccccc1)c1ccccc1)N1CCNC[C@H]1Cc1ccccc1` [Example 10, (R)—N-Benzhydryl-2-benzylpiperazine-1-carboxamide] has an IC50 of over 50 µM. Compound `O=C(Cc1ccccc1-c1ccccc1Cl)N1CCNC[C@H]1Cc1ccccc1` [Example 11, 1-((R)-2-Benzylpiperazin-1-yl)-2-(2′-chlorobiphenyl-2-yl)ethanone] has an IC50 of 0.5 to 5 µM. `O=S(=O)(CCc1ccccc1)N1CCNC[C@H]1Cc1ccccc1` [Example 12, (R)-2-Benzyl-1-(phenethylsulfonyl)piperazine] was tested, and the IC50 was 5 to 50 µM. `O=S(=O)(CC(c1ccccc1)c1ccccc1)N1CCNC[C@H]1Cc1ccccc1` [Example 13, (R)-2-Benzyl-1-(2,2-diphenylethylsulfonyl)piperazine] was tested, and the IC50 was 0.5 to 5 µM. Compound `Cc1ccc(C(CC(=O)N2CCNC[C@H]2Cc2ccccc2)N2Cc3ccccc3C2=O)cc1` (stereo partly drawn) [Example 14, 2-(3-((R)-2-Benzylpiperazin-1-yl)-3-oxo-1-p-tolylpropyl)isoindolin-1-one] has an IC50 of 0.5 to 5 µM. Work on `O=C(COc1cccc2ccccc12)N1CCNC[C@H]1Cc1ccccc1` [Example 15, (R)-1-(2-Benzylpiperazin-1-yl)-2-(naphthalen-1-yloxy)ethanone] yielded an IC50 of 5 to 50 µM. `O=C(CC(Cc1ccccc1)c1ccco1)N1CCNC[C@H]1Cc1ccccc1` (stereo partly drawn) [Example 16, 1-((R)-2-Benzylpiperazin-1-yl)-3-(furan-2-yl)-4-phenylbutan-1-one] showed an IC50 of 0.5 to 5 µM. `C[C@H](CC(=O)N1CCNC[C@H]1Cc1ccccc1)c1ccccc1` [Example 17, (R)-1-((R)-2-Benzylpiperazin-1-yl)-3-phenylbutan-1-one] gave an IC50 of 0.5 to 5 µM. Compound `C[C@@H](CC(=O)N1CCNC[C@H]1Cc1ccccc1)c1ccccc1` [Example 18, (S)-1-((R)-2-Benzylpiperazin-1-yl)-3-phenylbutan-1-one] has an IC50 of 5 to 50 µM. With `O=C(CCCc1ccccc1)N1CCNC[C@H]1Cc1ccccc1` [Example 19, (R)-1-(2-Benzylpiperazin-1-yl)-4-phenylbutan-1-one] the IC50 was 5 to 50 µM. `CC1(C)CC(CC(=O)N2CCNC[C@H]2Cc2ccccc2)(c2ccccc2)CCO1` (stereo partly drawn) [Example 20, 1-((R)-2-Benzylpiperazin-1-yl)-2-(2,2-dimethyl-4-phenyltetrahydro-2H-pyran-4-yl)ethanone] showed an IC50 of 0.5 to 5 µM. `O=C(Oc1ccccc1CCC(=O)N1CCNC[C@H]1Cc1ccccc1)c1ccccc1` [Example 21, (R)-2-(3-(2-Benzylpiperazin-1-yl)-3-oxopropyl)phenyl benzoate] showed an IC50 of 0.5 to 5 µM. `O=C(CCc1ccccc1Oc1ccc(Cl)cc1)N1CCNC[C@H]1Cc1ccccc1` [Example 22, (R)-1-(2-Benzylpiperazin-1-yl)-3-(2-(4-chlorophenoxy)phenyl)propan-1-one] was tested, and the IC50 was under 0.5 µM. Compound `Cc1cccc(Oc2ccccc2CCC(=O)N2CCNC[C@H]2Cc2ccccc2)c1` [Example 23, (R)-1-(2-benzylpiperazin-1-yl)-3-(2-(m-tolyloxy)phenyl)propan-1-one] has an IC50 of under 0.5 µM. `CC(=O)NCCc1ccccc1Oc1ccccc1CCC(=O)N1CCNC[C@H]1Cc1ccccc1` [Example 24, (R)—N-(2-(2-(3-(2-Benzylpiperazin-1-yl)-3-oxopropyl)phenoxy)phenethyl)acetamide] was tested, and the IC50 was under 0.5 µM. `CC(=O)NCCc1cc(C)ccc1Oc1ccc(C)cc1CCC(=O)N1CCNC[C@H]1Cc1ccccc1` [Example 25, (R)—N-(2-(2-(3-(2-Benzylpiperazin-1-yl)-3-oxopropyl)-4-methylphenoxy)-1-methylphenethyl)acetamide] gave an IC50 of under 0.5 µM. For `CC(=O)NCCc1ccccc1Oc1ccc(C)cc1CCC(=O)N1CCNC[C@H]1Cc1ccccc1` [Example 26, (R)—N-(2-(2-(3-(2-Benzylpiperazin-1-yl)-3-oxopropyl)-4-methylphenoxy)phenethyl)acetamide], the IC50 was under 0.5 µM. Work on `CC(=O)NCCc1cc(C)ccc1Oc1cc(C)ccc1CCC(=O)N1CCNC[C@H]1Cc1ccccc1` [Example 27] yielded an IC50 of under 0.5 µM. With `CC(=O)NCCc1ccccc1Oc1cc(C)ccc1CCC(=O)N1CCNC[C@H]1Cc1ccccc1` [Example 28, (R)—N-(2-(2-(3-(2-Benzylpiperazin-1-yl)-3-oxopropyl)-5-methylphenoxy)phenethyl)acetamide] the IC50 was under 0.5 µM. `CC(=O)NCc1ccccc1Oc1ccccc1CCC(=O)N1CCNC[C@H]1Cc1ccccc1` [Example 29, (R)—N-(2-(2-(3-(2-Benzylpiperazin-1-yl)-3-oxopropyl)phenoxy)benzyl)acetamide] showed an IC50 of under 0.5 µM. In the case of `N#Cc1ccccc1Oc1ccccc1CCC(=O)N1CCNC[C@H]1Cc1ccccc1` [Example 30, (R)-2-(2-(3-(2-benzylpiperazin-1-yl)-3-oxopropyl)phenoxy)benzonitrile], the IC50 is reported as 0.5 to 5 µM. For `CN(C)c1cccc(Oc2ccccc2CCC(=O)N2CCNC[C@H]2Cc2ccccc2)c1` [Example 31, (R)-1-(2-Benzylpiperazin-1-yl)-3-(2-(3-(dimethylamino)phenoxy)phenyl)propan-1-one], the IC50 was under 0.5 µM. In the case of `CCOc1cccc(Oc2ccccc2CCC(=O)N2CCNC[C@H]2Cc2ccccc2)c1` [Example 32, (R)-1-(2-Benzylpiperazin-1-yl)-3-(2-(3-ethoxyphenoxy)phenyl)propan-1-one], the IC50 is reported as 0.5 to 5 µM. Work on `CC(=O)Nc1cccc(Oc2ccccc2CCC(=O)N2CCNC[C@H]2Cc2ccccc2)c1` [Example 33, (R)—N-(3-(2-(3-(2-Benzylpiperazin-1-yl)-3-oxopropyl)phenoxy)phenyl)acetamide] yielded an IC50 of 0.5 to 5 µM. Work on `CCNC(=O)c1cccc(Oc2ccccc2CCC(=O)N2CCNC[C@H]2Cc2ccccc2)c1` [Example 34, (R)-3-(2-(3-(2-Benzylpiperazin-1-yl)-3-oxopropyl)phenoxy)-N-ethylbenzamide] yielded an IC50 of 0.5 to 5 µM. `O=C(CCc1ccccc1Oc1cccc(CO)c1)N1CCNC[C@H]1Cc1ccccc1` [Example 35, (R)-1-(2-Benzylpiperazin-1-yl)-3-(2-(3-(hydroxymethyl)phenoxy)phenyl)propan-1-one] was tested, and the IC50 was 0.5 to 5 µM.

Source: patent US20100210635A1, “RENIN INHIBITORS” (Takeda Pharmaceutical Company Limited, priority 2006, published 2010)
